In ChEMBL document CHEMBL5614416, “Discovery of novel thiophene[3,2-d]pyrimidine-based tubulin inhibitors with enhanced antitumor efficacy for combined use with anti-pd-l1 immunotherapy in melanoma” (Eur J Med Chem, 2024):
Active and inactive are the calls of the source. No cut-off for these calls is given here.

Key:
[1] = Toxicity in C57 mouse xenografted with mouse B16-F10 cells assessed as MCHC level at 7 mg/kg, ip qd for 12 days by biochemical analysis (reference value: 324.000 to 683.000 g/L); type: organism-based; settings: in vivo, 288 h, time 12 day
[2] = Toxicity in C57 mouse xenografted with mouse B16-F10 cells assessed as basophil count at 3.5 mg/kg, ip qd for 12 days in presence of NP-19 by biochemical analysis (reference value: 0.060 to 25.500 10^9/L); type: organism-based; settings: in vivo, 288 h, time 12 day
[3] = Toxicity in C57 mouse xenografted with mouse B16-F10 cells assessed as morphological abnormality in liver at 3.5 mg/kg, ip qd for 12 days in presence of NP-19 by H and E staining based analysis; type: organism-based; settings: in vivo, 288 h, time 12 day
[4] = system: HeLa; experiment: Antiproliferative activity against human HeLa cells incubated for 48 hrs by MTT assay; type: functional, cell-based
[5] = Toxicity in C57 mouse xenografted with mouse B16-F10 cells assessed as MCV level at 3.5 mg/kg, ip qd for 12 days in presence of NP-19 by biochemical analysis (reference value: 15.800 to 48.900 fL); type: organism-based; settings: in vivo, 288 h, time 12 day
[6] = system: B16-F10; experiment: Inhibition of cell migration in mouse B16-F10 cells assessed as reduction in wound closure incubated for 24 hrs by wound healing assay; type: functional, cell-based
[7] = system: B16-F10; experiment: Antitumor activity against mouse B16-F10 cells xenografted in C57 mouse at 3.5 mg/kg, ip qd for 12 days in presence of NP-19 relative to control; type: functional; settings: B16-F10, 288 h, time 12 day, read-out: TGI
[8] = system: MCF7; experiment: Inhibition of cell migration in human MCF7 cells assessed as reduction in wound closure incubated for 24 hrs by wound healing assay; type: functional, cell-based
[9] = system: B16-F10; experiment: Induction of cell cycle arrest in mouse B16-F10 cells assessed as accumulation of cells at G1 phase at 1 nM incubated for 12 hrs by flow cytometry (reference value: 52.0 %); type: functional
[10] = system: B16-F10; experiment: Induction of apoptosis in mouse B16-F10 cells assessed as viable cells at 2 nM incubated for 12 hrs by Annexin V-FITC/PI staining based flow cytometry (reference value: 93.6 %); type: functional; settings: read-out: Activity
[11] = Toxicity in C57 mouse xenografted with mouse B16-F10 cells assessed as morphological abnormality in kidney at 3.5 mg/kg, ip qd for 12 days in presence of NP-19 by H and E staining based analysis; type: organism-based; settings: in vivo, 288 h, time 12 day
[12] = system: B16-F10; experiment: Induction of apoptosis in mouse B16-F10 cells assessed as necrotic cells at 0.5 nM incubated for 12 hrs by Annexin V-FITC/PI staining based flow cytometry (reference value: 0.25 %); type: functional
[13] = system: B16-F10; experiment: Induction of apoptosis in mouse B16-F10 cells assessed as increase in Bax level upto 30 nM incubated for 24 hrs by Western blot analysis; type: functional, cell-based
[14] = system: B16-F10; experiment: Induction of apoptosis in mouse B16-F10 cells assessed as decrease in Bcl-2 level upto 30 nM incubated for 24 hrs by Western blot analysis; type: functional, cell-based
[15] = Toxicity in C57 mouse xenografted with mouse B16-F10 cells assessed as basophil count at 7 mg/kg, ip qd for 12 days by biochemical analysis (reference value: 0.060 to 25.500 10^9/L); type: organism-based; settings: in vivo, 288 h, time 12 day
[16] = Toxicity in C57 mouse xenografted with mouse B16-F10 cells assessed as eosinophil level at 7 mg/kg, ip qd for 12 days by biochemical analysis (reference value: 0.700 to 1.000 %); type: organism-based; settings: in vivo, 288 h, time 12 day
[17] = system: B16-F10; experiment: Inhibition of cell migration in mouse B16-F10 cells assessed as migration rate at 4 nM incubated for 24 hrs by wound healing assay (reference value: 61.1 %); type: functional; design: scale not given: the % may be the effect or the level left
[18] = system: B16-F10; experiment: Induction of cell cycle arrest in mouse B16-F10 cells assessed as accumulation of cells at S phase at 2 nM incubated for 12 hrs by flow cytometry (reference value: 30.5 %); type: functional
[19] = Toxicity in C57 mouse xenografted with mouse B16-F10 cells assessed as morphological abnormality in heart at 7 mg/kg, ip qd for 12 days by H and E staining based analysis; type: organism-based; settings: in vivo, 288 h, time 12 day
[20] = system: HepG2; experiment: Antiproliferative activity against human HepG2 cells incubated for 48 hrs by MTT assay; type: functional, cell-based; settings: HepG2, 48 h
[21] = system: B16-F10; experiment: Antitumor activity against mouse B16-F10 cells xenografted in C57 mouse assessed as suppression of tumor growth at 7 mg/kg, ip qd for 12 days; type: functional, organism-based; settings: time 12.0 day
[22] = Toxicity in C57 mouse xenografted with mouse B16-F10 cells assessed as eosinophil level at 3.5 mg/kg, ip qd for 12 days in presence of NP-19 by biochemical analysis (reference value: 0.700 to 1.000 %); type: organism-based; settings: in vivo, 288 h, time 12 day
[23] = system: NCI-H23; experiment: Antiproliferative activity against human NCI-H23 cells incubated for 48 hrs by MTT assay; type: functional, cell-based; settings: NCI-H23, 48 h
[24] = system: MCF7; experiment: Inhibition of cell migration in human MCF7 cells assessed as migration rate at 4 nM incubated for 24 hrs by wound healing assay (reference value: 18.1 %); type: functional; design: scale not given: the % may be the effect or the level left
[25] = system: B16-F10; experiment: Induction of cell cycle arrest in mouse B16-F10 cells assessed as accumulation of cells at S phase at 1 nM incubated for 12 hrs by flow cytometry (reference value: 30.5 %); type: functional
[26] = Toxicity in C57 mouse xenografted with mouse B16-F10 cells assessed as body weight change at 3.5 mg/kg, ip qd for 12 days in presence of NP-19; type: organism-based; settings: in vivo, 288 h, time 12 day
[27] = Toxicity in C57 mouse xenografted with mouse B16-F10 cells assessed as MCV level at 7 mg/kg, ip qd for 12 days by biochemical analysis (reference value: 15.800 to 48.900 fL); type: organism-based; settings: in vivo, 288 h, time 12 day
[28] = system: B16-F10; experiment: Induction of cell cycle arrest in mouse B16-F10 cells assessed as accumulation of cells at G2 phase at 0.5 nM incubated for 12 hrs by flow cytometry (reference value: 13.6 %); type: functional
[29] = system: B16-F10; experiment: Induction of apoptosis in mouse B16-F10 cells assessed as viable cells at 0.5 nM incubated for 12 hrs by Annexin V-FITC/PI staining based flow cytometry (reference value: 93.6 %); type: functional; settings: read-out: Activity
[30] = Toxicity in C57 mouse xenografted with mouse B16-F10 cells assessed as body weight change at 7 mg/kg, ip qd for 12 days; type: organism-based; settings: in vivo, 288 h, time 12 day
[31] = Toxicity in C57 mouse xenografted with mouse B16-F10 cells assessed as neutrophil count at 7 mg/kg, ip qd for 12 days by biochemical analysis (reference value: 2.130 to 5.46 10^9/L); type: organism-based; settings: in vivo, 288 h, time 12 day
[32] = system: B16-F10; experiment: Induction of cell cycle arrest in mouse B16-F10 cells assessed as accumulation of cells at S phase at 0.5 nM incubated for 12 hrs by flow cytometry (reference value: 30.5 %); type: functional
[33] = Toxicity in C57 mouse xenografted with mouse B16-F10 cells assessed as PCT level at 7 mg/kg, ip qd for 12 days by biochemical analysis (reference value: 0.425 to 5.300); type: organism-based; settings: in vivo, 288 h, time 12 day
[34] = system: B16-F10; experiment: Induction of apoptosis in mouse B16-F10 cells assessed as early apoptotic cells at 0.5 nM incubated for 12 hrs by Annexin V-FITC/PI staining based flow cytometry (reference value: 3.81 %); type: functional

- IC50 [4]: 5.37 nM
- IC50 [20]: 9.37 nM
- IC50 [23]: 8.94 nM
Structure (SMILES): Cc1nc(N(C)c2ccc3c(ccn3C)c2)c2sccc2n1
- Activity [1]: 322 g/L
- Activity [2]: 0.01 10^9/L
- Activity [3]: Non-Toxic
- Activity [5]: 15.7 fL
- inhibition [6]: Dose-Dependent Effect
- inhibition in vivo at 3.5 mg/kg [7]: 75.7%
- inhibition [8]: Dose-Dependent Effect
- Activity [9]: 13.8%
- viability at 0.002 µM [10]: 75%
- Activity [11]: Non-Toxic
- Activity [12]: 1.44%
- Activity [13]: Active
- Activity [14]: Active
- Activity [15]: 0.01 10^9/L
- Activity [16]: 0.3%
- Activity [17]: 5.23%
- Activity [18]: 19.3%
- Activity [19]: Non-Toxic
- Activity [21]: Active
- Activity [22]: 0.3%
- Activity [24]: 3.23%
- Activity [25]: 22.3%
- Activity [26]: Non-Toxic
- Activity [27]: 15.8 fL
- Activity [28]: 58.9%
- viability at 0.0005 µM [29]: 80.1%
- Activity [30]: Non-Toxic
- Activity [31]: 0.85 10^9/L
- Activity [32]: 15.9%
- Activity [33]: 0.329
- Activity [34]: 11.2%
